The values that follow are results of earlier work, collected in patent US11622991B2, “Protocol for treatment of lupus nephritis” (Aurinia Pharmaceuticals Inc., priority 2017, dated 2023).

For this data set, the system named is lupus nephritis. To be noted: standard of care for LN; cited from earlier work.

`O=P1(N(CCCl)CCCl)NCCCO1` (centres unmarked) [cyclophosphamide]: the “partial remission, cases” value was “approximately 50%”.
As for `COc1c(C)c2c(c(O)c1C/C=C(\C)CCC(=O)OCCN1CCOCC1)C(=O)OC2` [mycophenolate mofetil], the “partial remission, cases” value is “approximately 50%”.
